Results taken from US10730857B2, “Benzocyanine compounds” (Pierce Biotechnology, Inc., priority 2011, dated 2020).

Tests used:
[1] = tested on: rabbit IgG immunoglobulin; test: Plate functional assay of dye-GAR conjugates; format: binding
Procedure: Performance of the dye-GAM conjugates, dye-GAR conjugates, and dye-SA conjugates was evaluated in a functional assay. Wells of a 96 white opaque plate or black clear-bottom plate were coated with target proteins mouse IgG immunoglobulin, rabbit IgG immunoglobulin, or biotinylated bovine serum albumin (BBSA). One hundred μl mouse or rabbit IgG, or BBSA at a concentration of 10 μg/ml was applied to the corresponding wells in columns 1 and 2. The target proteins were serially diluted 1:1 from the wells in columns 2 to 11 using 100 μl PBS. One hundred μl of the samples from the wells in column 11 were discarded. One hundred μl PBS was added to the wells in column 12. The plates were incubated overnight at 4° C. and then blocked 2×200 μl with Thermo Scientific SuperBlock® Blocking Buffer. The coated plates were washed 2×200 μl with PBS-Tween and 1×200 μl with PBS. Based on the calculated concentrations, conjugates were diluted 1:250 in PBS, added to the corresponding plates (100 μl/well) and then incubated for one hour in the dark. The plates were washed with 2×200 μl with PBS-Tween and 1×200 μl with PBS and filled with PBS buffer (100 μl/well) prior to scanning the white opaque plates on Tecan Safire using 679 nmexcitation/702 nmemission or scanning the black clear-bottom plates on LiCor Odyssey at 700 channel, to detect fluorescence intensity.

lamin A in U20S cells [2] = test: Immunofluorescence detection of lamin A in U20S cells (FIG. 20A-C and repeat); format: cell-based
Procedure: In the indicated experiments, the inventive compounds and commercial dye were evaluated for immunofluorescence in a cell based assay using the following protocol. Frozen U20S cell plates which were stored at −80° C. were thawed for 45 minutes at 50° C. Storage buffer (PBS) was removed and the cells were permeabilized for 15 minutes with 0.1% Triton-X100 in 1×PBS buffer (100 μl/well). The cell plate was blocked for 60 minutes in 2% BSA/PBS-0.1% Triton-X100. Primary antibody, either rat anti-Grp94 (5 μg/ml), mouse anti-lamin A (10 μg/ml), or rabbit anti-lamin B1 (10 μg/ml), diluted in 2% BSA/PBS-0.1% Triton-X100 was added to the plate and incubated for 1 hour at room temperature. Control wells contained only 2% BSA/PBS-0.1% Triton-X100 blocker. After incubation, the antibody solution was removed from the plate and the plate was washed three times with 100 μl/well of PBS-0.5% Tween-20 and one time with 100 μl/well PBS. GARat, GAM, or GAR secondary antibodies labeled with various molar excess of the inventive or commercial compound were diluted to 4 μg/ml in PBS and incubated for 1 hour at room temperature. The plates were washed three times with 100 μl/well of PBST and once with 100 μl/well PBS, and Hoechst (diluted to 0.1 μg/ml in PBS) was added to each well (100 μl/well). The plates were scanned on ArrayScan Plate Reader or ToxInsight Instrument.

[3] = Absorbance/emission spectral properties and fluorescence intensity of the dyes; format: physicochemical
Procedure: Emission/excitation profiles for inventive and commercial compounds was determined by reconstituting the compounds in DMF at 10 mg/ml and then diluting in PBS buffer pH 7.2 to 10 μg/ml.

[4] = In vivo imaging with dye-labeled anti-CEA antibody; set-up: species or system nu/nu mice; settings: dye conjugated to mouse anti-CEA antibody; i.v.; predicted results
Procedure: The inventive compounds are used for in vivo imaging as described in J. Gastrointest Surg (2008) 12:1938-1950. Briefly, human pancreatic cell lines are maintained in media supplemented with penicillin/streptomycin at 37° C. with 5% CO2. Mouse anti-CEA antibody and Control Mouse IgG (in PBS with 0.20% sodium azide) are conjugated to V08-15173. The dye is reconstituted at 10 mg/ml in DMF and then added to the antibody at a 10 molar excess. The reaction is carried out for one hour at room temperature. The samples are then dialyzed against 3×2 L of PBS. The cell lines are plated in 96-well plates at 5×10^4 cells per well. After 48 hours culture in appropriate media, the cells are incubated with 1 μg of V08-15173 labeled anti-CEA antibody or V08-15173-labeled control mouse IgG for four hours at 37° C. The cells are then washed three times with PBS and then imaged with an inverted Nikon De-485 microscope and Spot camera RD.
Surgical procedures and intravital imaging are performed with the animals anesthesized by intramuscular injection of 0.02 ml of 50% ketamine, 38% xylazine and 12 acepromazine maleate. Human pancreatic and colorectal cancer cell lines are harvested by trypsinization and washed twice with serum free medium […]. Cells (1×10^6 in 100 μl of serum-free media) are injected subcutaneously within 30 minutes of harvesting over the right flank in female nu/nu mice between 4-6 weeks of age. Subcutaneous tumors are allowed to grow for 7-14 days until they reached diameter of 1-2 mm prior to the delivery of conjugated antibody. For ASPC-1 implants, the cells are harvested by trypsinization and washed 3× in serum-free media. […]. The cells are resuspended in serum-free media at 5×10^6/ml. A volume of 200 μl of the cell suspension is then injected directly into the peritoneal cavity within 30 minutes of harvesting.
For antibody delivery, one to two weeks after subcutaneous, orthotopic, or intraperitoneal tumor implantation, animals are given intravenous (i.v.) injection of either conjugated anti-CEA or conjugated control IgG antibody diluted in PBS to a final volume of 100 μl. All i.v. injections are done via the tail vein. For the dose-response experiment, the antibody dose is 75 μg. For the in vivo time course, the animals are anesthesized and imaged at 30 min, 1, 2, 6, 24 hours and 8 and 15 days after systemic antibody delivery.
The inventive compounds are used for in vivo imaging as described in J. Gastrointest Surg (2008) 12:1938-1950. Briefly, human pancreatic cell lines are maintained in media supplemented with penicillin/streptomycin at 37° C. with 5% CO2. Mouse anti-CEA antibody and Control Mouse IgG (in PBS with 0.20% sodium azide) are conjugated to 779 Compound 1. […]

lamin A in U20S cells [5] = test: Immunofluorescence, mouse anti-lamin A, U20S cells (FIG. 16); format: cell-based; settings: FIG. 16
Procedure: The inventive compounds and commercial dye were evaluated for immunofluorescence in a second cell based assay using the following protocol. Frozen U20S cell plates stored at −20° C. were placed overnight at 4° C. Storage buffer (PBS) was removed and the cells were permeabilized for 15 min (100 μl/well) with 0.1% Triton-X100 in 1×PBS buffer. Plates were blocked for 30 min in 2% BSA in 1×PBS-0.1% Trion-X100. Primary antibodies diluted in 2% BSA in 1×PBS-0.1% Trion-X100 were added to the plates (column 1-11; column 12 included only blocker) and incubated five hours at room temperature. Mouse anti-lamin A was added at 2 μg/ml and rabbit anti-lamin B1 was added at 4 μg/ml. After incubation, the antibody solution was removed from the plates and the plates were washed PBS-0.5% Tween-20 (2×100 μl/well). Next, GAM and GAR secondary antibodies labeled with DyLight 680-NHS, DyLight 680B-NHS, 679 Compound 1-NHS, and Cy5.5 Mono Ester were diluted to 4 μg/ml in PBS and incubated with the cells for one hour at room temperature. GAM and GAR conjugated to DyLight 680-NHS, DyLight 680B-NHS, 679 Compound 1-NHS, and Company B Compound at 10× molar excess were diluted to 4 μg/ml in PBS and then serially diluted 1:1 in the plate to the following concentrations: 2 μg/ml, 1 μg/ml, 0.5 μg/ml, 0.25 μg/ml, 0.125 μg/ml and/or 0.0625 μg/ml. The plates were washed 3× with 100 μl/well PBS, and Hoechst stain diluted to 0.1 μg/ml in PBS was added to each well (100 μl/well). The plates were scanned on ArrayScan Plate Reader for imaging and quantitation.

[6] = first property table of Example 6, NHS/mono ester forms
[7] = second property table of Example 6, NHS ester forms

Q: What does the source list for `COCC[N+]1=C(/C=C/C=C/C=C2/N(CCCCCC(=O)O)c3ccc4c(S(=O)(=O)[O-])cc(S(=O)(=O)[O-])cc4c3C2(C)C)C(C)(CCCS(=O)(=O)[O-])c2c1ccc1c(S(=O)(=O)[O-])cc(S(=O)(=O)[O-])cc21.[Na+].[Na+].[Na+].[Na+]` (centres unmarked) [679 Compound 1/1, 2-{(1E,3E)-5-[3-(5-Carboxypentyl)-1,1-dimethyl-6,8-disulfo-1,3-dihydro-benzo[e]indol-(2E)-ylidene]-penta-1,3-dienyl}-3-(2-methoxy-ethyl)-1-methyl-6,8-disulfo-1-(3-sulfopropyl)-1H-benzo[e]indolium]?
A: quenching at 1000 ng/well at 25× (in words) ([1]; FIG. 14 summary Raw Fluorescence Intensity): apparent quenching; Raw Fluorescence Intensity behaviour at 25× molar excess (in words) ([1]; LiCOR Odyssey, FIG. 12): saturating at 25×; Mean Total Intensity, Average, 2.5 X (lamin A in U20S cells [2]; GAM conjugate 4 μg/ml, 2.5 X molar excess): 29229; Mean Total Intensity, Average, 5.0 X (lamin A in U20S cells [2]; GAM conjugate 4 μg/ml, 5.0 X molar excess): 49279; Mean Total Intensity, Average, 7.5 X (lamin A in U20S cells [2]; GAM conjugate 4 μg/ml, 7.5 X molar excess): 28782; Mean Total Intensity, Average, 10 X (lamin A in U20S cells [2]; GAM conjugate 4 μg/ml, 10 X molar excess): 30098; Mean Total Intensity, Average, 15 X (lamin A in U20S cells [2]; GAM conjugate 4 μg/ml, 15 X molar excess): 48071; Mean Total Intensity, Negative control, 2.5 X (lamin A in U20S cells [2]; repeat experiment, no primary antibody, 2.5 X): 8711; Mean Total Intensity, Negative control, 5 X (lamin A in U20S cells [2]; repeat experiment, no primary antibody, 5 X): 8674; Mean Total Intensity, Negative control, 10 X (lamin A in U20S cells [2]; repeat experiment, no primary antibody, 10 X): 20481; Mean Total Intensity, Negative control, 15 X (lamin A in U20S cells [2]; repeat experiment, no primary antibody, 15 X): 16277

Q: With “2-{(1E,3E)-5-[3-(5-Carboxypentyl)-1,1-dimethyl-6,8-disulfo-1,3-dihydro-benzo[e]indol-(2E)-ylidene]-penta-1,3-dienyl}-3-(2-methoxy-ethyl)-1-methyl-6,8-disulfo-1-(3-sulfopropyl)-1H-benzo[e]indolium [679 Compound 1/1 (isomer 2)]” as the compound, how does the “UV-vis λmax” value ([3]; PBS) read?
A: The value was 679 nm.

Q: What about the λem ([3]; PBS) of the same compound?
A: The λem was 698 nm.

Q: Which “Ex vivo analysis of the vital organs” value [4] does the source give for `COCC[N+]1=C(/C=C/C=C/C=C/C=C2/N(CCCCCC(=O)O)c3ccc4c(S(=O)(=O)[O-])cc(S(=O)(=O)O)cc4c3C2(C)C)C(C)(CCCS(=O)(=O)O)c2c1ccc1c(S(=O)(=O)O)cc(S(=O)(=O)O)cc21` (centres unmarked) [779 Compound 1, 6-((E)-2-((2E,4E,6E)-7-(3-(2-methoxyethyl)-1-methyl-6,8-disulfonato-1-(3-sulfonatopropyl)-1H-benzo[e]indol-3-ium-2-yl)hepta-2,4,6-trien-1-ylidene)-1,1-dimethyl-6,8-disulfonato-1H-benzo[e]indol-3(2H)-yl)hexanoate] here?
A: The value was “presence of dye predominantly in the liver with some signal detected in the spleen intestines and lungs”.

Q: What about the “post-experiment surgical exposure: accumulation of dye” value [4] of the same compound?
A: Its value is “accumulation of dye in the liver, bladder, and a region of inflammation in the subcutaneous tissue”.

Q: With Cy5.5 [reference compound] as the compound, how does the “Mean Total Intensity 2X” value (lamin A in U20S cells [5]; GAM conjugated at 2X molar excess) read?
A: Its value is 211945.

Q: And the “Mean Total Intensity 3X” value (lamin A in U20S cells [5]; GAM conjugated at 3X molar excess)?
A: The value was 342208.

Q: What about the “Mean Total Intensity 4X” value (lamin A in U20S cells [5]; GAM conjugated at 4X molar excess) of the same compound?
A: Its value is 451111.

Q: Which “UV-vis λmax” value ([3]; PBS) does the source give for `COCC[N+]1=C(/C=C/C=C/C=C2/N(CCCCCC(=O)O)c3ccc4c(S(=O)(=O)[O-])cc(S(=O)(=O)[O-])cc4c3C2(C)C)C(C)(CCCS(=O)(=O)[O-])c2c1ccc1c(S(=O)(=O)[O-])cc(S(=O)(=O)[O-])cc21.[Na+].[Na+].[Na+].[Na+]` (single isomer, unassigned; isomer 1) [679 Compound 1/1 (isomer 1), 2-{(1E,3E)-5-[3-(5-Carboxypentyl)-1,1-dimethyl-6,8-disulfo-1,3-dihydro-benzo[e]indol-(2E)-ylidene]-penta-1,3-dienyl}-3-(2-methoxy-ethyl)-1-methyl-6,8-disulfo-1-(3-sulfopropyl)-1H-benzo[e]indolium] here?
A: The value was 679 nm.

Q: With `COCC[N+]1=C(/C=C/C=C/C=C2/N(CCCCCC(=O)ON3C(=O)CCC3=O)c3ccc4c(S(=O)(=O)[O-])cc(S(=O)(=O)O)cc4c3C2(C)C)C(C)(CCCS(=O)(=O)O)c2c1ccc1c(S(=O)(=O)O)cc(S(=O)(=O)O)cc21` (centres unmarked) [679 Compound 1-NHS] as the compound, how does the Em [3, 6] read?
A: The Em was 698 nm.

Q: What about the Ex [3, 6] of the same compound?
A: Its Ex is 679 nm.

Q: And the Em [3, 7]?
A: The Em was 698 nm.

Q: And the Ex [3, 7]?
A: The Ex was 679 nm.
